Measured values published in patent US20150246902A1, “SUBSTITUED BENZOFURAN COMPOUNDS AND METHODS OF USE THEREOF FOR THE TREATMENT OF VIRAL DISEASES” (priority 2011, published 2015).

Columns and labels:
[1] = tested on: HCV replicon genotype 1b; experiment: microbe, parasite or virus in culture; assay type: cell-based; conditions: Hepatitis C virus, 96 h, HCV genotype 1b replicon cells, 96 hours incubation, NS3/4A ELISA readout
[2] = tested on: HCV replicon genotype 1a; experiment: microbe, parasite or virus in culture; assay type: cell-based; conditions: Hepatitis C virus, 96 h, HCV genotype 1a replicon cells, 96 hours incubation, NS3/4A ELISA readout

| SMILES | IC50 [1] [nM] | IC50 [2] [nM] |
| --- | --- | --- |
| CNC(=O)c1c(-c2ccc(F)cc2)oc2cc(N3CCCC3=O)c(-c3ccc4ncn(-c5ccccc5)c4c3)cc12 [Compound 77, 2-(4-fluorophenyl)-N-methyl-6-(2-oxopyrrolidin-1-yl)-5-(1-phenyl-1H-benzo[d]imidazol-6-yl)benzofuran-3-carboxamide] | 32.6 | 235 |
| CNC(=O)c1c(-c2ccc(F)cc2)oc2cc(N(C)S(C)(=O)=O)c(-c3cc(F)c4ncn(-c5cc(F)cc(F)c5)c4c3)cc12 [Compound 30] | 2.8 | 6.3 |
| CNC(=O)c1c(-c2ccc(F)cc2)oc2cc(N(C)S(C)(=O)=O)c(-c3ccc4c(ccn4-c4ccc(C(F)(F)F)cc4)c3)cc12 [Compound 56] | 30.8 | 224 |
| CNC(=O)c1c(-c2ccc(F)cc2)oc2cc(N(C)S(C)(=O)=O)c(-c3ccc4[nH]nc(-c5ccc(F)cc5)c4c3)cc12 [Compound 73, 2-(4-fluorophenyl)-5-(3-(4-fluorophenyl)-1H-indazol-5-yl)-N-methyl-6-(N-methylmethylsulfonamido)benzofuran-3-carboxamide] | 3.8 | 3.9 |
| CNC(=O)c1c(-c2ccc(F)cc2)oc2cc(N(C)S(C)(=O)=O)c(-c3cc(OC)c4nc(C)n(-c5cc(F)cc(F)c5)c4c3)cc12 [Compound 37] | 4.3 | 6.8 |
| CNC(=O)c1c(-c2ccc(F)cc2)oc2cc(N(C)S(C)(=O)=O)c(-c3cc(OC)c4nc(C)n(-c5ccc(F)cc5)c4c3)cc12 [Compound 33] | 8.8 | 13.7 |
| CNC(=O)c1c(-c2ccc(F)cc2)oc2cc(N(C)S(C)(=O)=O)c(-c3ncc4ncn(-c5ccc(C#N)cc5)c4n3)cc12 [Compound 42] | 299 | 1520 |
| CNC(=O)c1c(-c2ccc(F)cc2)oc2cc(N(C)S(C)(=O)=O)c(-c3ccc4cnn(-c5ccc(C#N)cc5)c4c3)cc12 [Compound 108] | 12.3 | 27.6 |
| CNC(=O)c1c(-c2ccc(F)cc2)oc2cc(N(C)S(C)(=O)=O)c(-c3ccc4ccn(-c5ccc(C(F)(F)F)cc5)c4c3)cc12 [Compound 61] | 10.1 | 34.2 |
| CNC(=O)c1c(-c2ccc(F)cc2)oc2cc(N(C)S(C)(=O)=O)c(-c3ccc4ncn(-c5cncc(F)c5)c4c3)cc12 [Compound 36] | 6.5 | 36.2 |
| CNC(=O)c1c(-c2ccc(F)cc2)oc2cc(N(C)S(C)(=O)=O)c(-c3cc(-c4nc5c(F)cccc5o4)c4occc4c3)cc12 [Compound 98] | 4.1 | 3.7 |
| CNC(=O)c1c(-c2ccc(F)cc2)oc2cc(N(C)S(C)(=O)=O)c(-c3cnc4ccn(-c5ccc(Cl)cc5)c4c3)cc12 [Compound 50] | 4.1 | 3.2 |
| CNC(=O)c1c(-c2ccc(F)cc2)oc2cc(N(C)S(C)(=O)=O)c(-c3ncc4ncn(-c5ccc(F)cc5)c4n3)cc12 [Compound 40] | 20.2 | 338 |
| CNC(=O)c1c(-c2ccc(F)cc2)oc2cc(N(C)S(C)(=O)=O)c(-c3ccc4c(ccn4-c4cccc(F)c4)c3)cc12 [Compound 55] | 23.8 | 152 |
| CNC(=O)c1c(-c2ccc(F)cc2)oc2cc(N(C)S(C)(=O)=O)c(-c3ccc4[nH]nc(-c5ccc(Cl)cc5)c4c3)cc12 [Compound 76] | 5.8 | 6.8 |
| CNC(=O)c1c(-c2ccc(F)cc2)oc2cc(N(C)S(C)(=O)=O)c(-c3ccc4ncn(-c5cccc(C#N)c5)c4c3)cc12 [Compound 6] | 1.2 | 10.6 |
| CNC(=O)c1c(-c2ccc(F)cc2)oc2cc(N(C)S(C)(=O)=O)c(-c3ccc4ncn(C5CCCNC5)c4c3)cc12 (centres unmarked) [Compound 25] | 51.1 | 585 |

| SMILES | IC50 [1] [nM] | IC50 [2] [nM] |
| --- | --- | --- |
| CNC(=O)c1c(-c2ccc(F)cc2)oc2cc(N(C)S(C)(=O)=O)c(-c3ccc4ncn(-c5cccc(OC)c5)c4c3)cc12 [Compound 4] | 2.5 | 26.5 |
| CNC(=O)c1c(-c2ccc(F)cc2)oc2cc(N(C)S(C)(=O)=O)c(-c3ccc4oc(-c5ccc(F)cc5)nc4c3)cc12 [Compound 87] | 10.8 | 51.5 |
| CNC(=O)c1c(-c2ccc(F)cc2)oc2cc(N(C)S(C)(=O)=O)c(-c3ccc4ccn(-c5ccc(F)cc5F)c4n3)cc12 [Compound 66] | 225 | 2270 |
| CNC(=O)c1c(-c2ccc(F)cc2)oc2cc(N(C)S(C)(=O)=O)c(-c3ccc4ncn(-c5ccc(Cl)cc5)c4c3)cc12 [Compound 10] | 3.6 | 4 |
| CNC(=O)c1c(-c2ccc(F)cc2)oc2cc(N(C)S(C)(=O)=O)c(-c3ccc4[nH]cc(-c5ccccc5)c4c3)cc12 [Compound 70, 2-(4-fluorophenyl)-N-methyl-6-(N-methylmethylsulfonamido)-5-(3-phenyl-1H-indol-5-yl)benzofuran-3-carboxamide] | 11.3 | 17.8 |
| CNC(=O)c1c(-c2ccc(F)cc2)oc2cc(N(C)S(C)(=O)=O)c(-c3ncc4ncn(-c5ccc(C(F)(F)F)cc5)c4n3)cc12 [Compound 41] | 6.7 | 119 |
| CNC(=O)c1c(-c2ccc(F)cc2)oc2cc(N(C)S(C)(=O)=O)c(-c3cccc4nc(-c5ccc(F)cc5)oc34)cc12 [Compound 86] | 304 | 714 |
| CNC(=O)c1c(-c2ccc(F)cc2)oc2cc(N(C)S(C)(=O)=O)c(-c3ccc4cnn(-c5ccc(F)cc5)c4c3)cc12 [Compound 105, 2-(4-fluorophenyl)-5-(1-(4-fluorophenyl)-1H-indazol-6-yl)-N-methyl-6-(N-methylmethylsulfonamido)benzofuran-3-carboxamide] | 2.8 | 5.2 |
| CNC(=O)c1c(-c2ccc(F)cc2)oc2cc(N(C)S(C)(=O)=O)c(-c3ccc4ncn(-c5ccc(C(F)(F)F)cc5)c4c3)cc12 [Compound 7] | 2.2 | 2.6 |
| CNC(=O)c1c(-c2ccc(F)cc2)oc2cc(N(C)S(C)(=O)=O)c(-c3ccc4ncn(-c5cccnc5)c4c3)cc12 [Compound 16] | 4.6 | 37.2 |
| CNC(=O)c1c(-c2ccc(F)cc2)oc2cc(N(C)S(C)(=O)=O)c(-c3ccc4nc(C)n(-c5ccc(F)cc5)c4c3)cc12 [Compound 19] | 2.2 | 12.8 |
| CNC(=O)c1c(-c2ccc(F)cc2)oc2cc(N(C)S(C)(=O)=O)c(-c3ccc4ncn(-c5ccccc5F)c4c3)cc12 [Compound 3] | 5.8 | 68 |
| CNC(=O)c1c(-c2ccc(F)cc2)oc2cc(N(C)S(C)(=O)=O)c(-c3ccc4ncn(-c5cccc(F)c5)c4c3)cc12 [Compound 14] | 1.2 | 2.7 |
| CNC(=O)c1c(-c2ccc(F)cc2)oc2cc(N(C)S(C)(=O)=O)c(-c3ccc4ncn(-c5ccc(F)cc5)c4c3)cc12 [Compound 15] | 1.2 | 5.5 |
| CNC(=O)c1c(-c2ccc(F)cc2)oc2cc(N(C)S(C)(=O)=O)c(-c3ccc4ccn(-c5ccccc5)c4c3)cc12 [Compound 63] | 7.2 | 23.5 |
| CNC(=O)c1c(-c2ccc(F)cc2)oc2cc(N(C)S(C)(=O)=O)c(-c3ccc4c(ccn4-c4cccnc4)c3)cc12 [Compound 57] | 3 | 13.9 |
| CNC(=O)c1c(-c2ccc(F)cc2)oc2cc(N(C)S(C)(=O)=O)c(-c3cn4ccnc4cn3)cc12 [Compound 90, 2-(4-fluorophenyl)-5-(imidazo[1,2-a]pyrazin-6-yl)-N-methyl-6-(N-methylmethylsulfonamido)benzofuran-3-carboxamide] | 120 | 2180 |
